Laboratory results: patent US20110152166A1, “METHOD OF MODULATION OF PROTEIN PHOSPHORYLATION-DEPENDENT CONFORMATIONAL TRANSITIONS WITH LOW MOLECULAR WEIGHT COMPOUNDS” (priority 2006, published 2011)
Ends that are not written are not given here.

Columns and labels:
[1] = target: T1, PDK1 catalytic domain (50-360) (Homo sapiens, UniProt O15530); test: TNP-ATP/PDK1 fluorescence, conformation of the ATP binding site
T1 construct: the catalytic domain of PDK1 (50-359) produced in SF9 insect cells; His-tag (N, cleaved yes); made in house; host or cells: SF9 insect cells (baculovirus)
T1 sequence (O15530 50-359): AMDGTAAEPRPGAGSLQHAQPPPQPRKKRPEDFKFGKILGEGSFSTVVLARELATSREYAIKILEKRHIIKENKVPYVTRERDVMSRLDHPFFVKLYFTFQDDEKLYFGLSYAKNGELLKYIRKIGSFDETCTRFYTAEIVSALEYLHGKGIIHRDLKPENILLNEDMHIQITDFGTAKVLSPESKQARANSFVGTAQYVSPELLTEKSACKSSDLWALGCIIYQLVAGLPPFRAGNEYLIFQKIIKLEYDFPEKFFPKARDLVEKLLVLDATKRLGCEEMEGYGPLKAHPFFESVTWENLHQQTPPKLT
Description: FIG. 5—Modulation of PDK1 conformation by phosphopeptides and small compounds. Effect of P-HM-polypeptides and compound 1 on the emission fluorescence of trinitrophenyl-ATP (TNP-ATP)/PDK1. The fluorescence emission spectra from TNP-ATP were recorded in the presence or absence of P-HM-polypeptides, PIFtide and compound 1. (A) Effect of P-HM-RSK (65 μM) on the fluorescence by TNP-ATP. (B) Effect of compound 1 on the fluorescence emission from TNP-ATP. Fluorescence intensities are expressed as %. […] The effect of P-HM-PKB was identical to that by P-HM-RSK.
The activation of PDK1 by P-HM-polypeptides and small compounds is due to a change in the conformation of the enzyme. We probed the conformation of the ATP binding site in PDK1 by scanning the steady-state fluorescence of TNP-ATP/PDK1, in the presence or absence of P-HM-polypeptides, PIFtide, or small molecular weight compounds. Data were obtained in a Varian Cary Eclipse spectrofluorometer (excitation γ=479 nm; emission scanning, γ=500-600 nm; excitation slit=10 nm; emission slit=10 nm) at a rate of 200 nm/min, with 150 datapoints/100 nm scanning and 0.3 s averaging time. […] Non-phosphorylated HM-polypeptides increased the fluorescence intensity of TNP-ATP in the absence of PDK1 and were not used in the study. […]

[2] = target: T2, Thr221-phosphorylated S6K11-364 (Rattus norvegicus, UniProt P67999); test: S6K1 in vitro reconstitution kinase assay with tail peptides; format: biochemical
T2 construct: Purified HA-S6K1-364 was incubated with synthetic S6K1 (rat) tail peptides; made in house; host or cells: COS7, co-transfected with myc-PDK1; anti-HA immunoprecipitate
T2 sequence (P67999 24-387): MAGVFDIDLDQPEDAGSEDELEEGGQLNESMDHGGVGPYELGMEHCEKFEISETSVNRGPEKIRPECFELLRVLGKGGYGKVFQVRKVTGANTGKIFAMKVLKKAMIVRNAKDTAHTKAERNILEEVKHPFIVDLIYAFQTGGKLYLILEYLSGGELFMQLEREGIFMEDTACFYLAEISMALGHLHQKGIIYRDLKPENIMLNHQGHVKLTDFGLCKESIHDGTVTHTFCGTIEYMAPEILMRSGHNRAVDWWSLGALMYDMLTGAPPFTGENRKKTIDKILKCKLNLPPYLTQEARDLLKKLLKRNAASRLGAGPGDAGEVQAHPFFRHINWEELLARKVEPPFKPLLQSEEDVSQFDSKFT
Source text: We established an in vitro reconstitution assay that could test a direct activation of the AGC kinase domain by the tail phosphate and characterize its cooperation with the HM and activation loop phosphates. The deletion mutant S6K11-364, which contains the kinase domain, but lacks the region of the tail containing the tail site and the HM as well as the C-terminal autoinhibitory domain, was expressed and purified from COS7 cells, either non-phosphorylated or phosphorylated at T221 in the activation loop, achieved by co-expression with PDK1. Purified S6K11-364 was then incubated with synthetic peptides of the S6K1 tail (residues 366-395: QTPVDS^371PDDSTLSESANQVFLGFT^389YVAPSV), which were either non-phosphorylated (S371/T389), phosphorylated at the tail site (pS371/T389), phosphorylated in the HM (S371/pT389) or phosphorylated at both sites (pS371/pT389). Subsequently, the kinase activity of S6K11-364 was determined.
Kinase assays for PKB, RSK, S6K, MSK were done as described previously (Frodin et al., 2002). […] After washing with 150 mM orthophosphoric acid, [^32P]phosphate incorporated into peptide substrate was quantified in an FLA-3000 apparatus (Fujifilm). […]

Substance	effect on TNP-ATP/PDK1 fluorescence (in words) ([1]; 40 μM TNP-ATP, 15 μM PDK1)	Emax ([1]; at 10 times the value of its Kd for PDK1, read-out: maximal effect on TNP-ATP fluorescence intensity) [%]	stimulation of kinase activity (in words) [2]
REPRILSEEEQEMFRDFDYIADWC [PIFtide, reference compound]	decreased the intensity	65	–
S371/T389: synthetic S6K1 tail peptide (residues 366-395), non-phosphorylated	–	–	did not stimulate
